Experimental data as given in US20100130493A1, “COMBINATION OF VEGF RECEPTOR TYROSINE KINASE INHIBITORS FOR TREATMENT OF CANCER” (priority 2002, published 2010).

Columns and labels:
[1] = tested on: human LoVo colon tumour xenografts; assay: Human LoVo colon tumour xenografts in nude mice; settings: LoVo xenograft, p.o. daily days 0-14, ZD6474 6 mg/kg/day, ZD1839 50 mg/kg/day, or combination, versus control
Experimental: 10^7 LoVo tumour cells in 0.1 ml of serum free Dulbecco's Modified Eagle's Medium (DMEM) were injected subcutaneously (s.c.) into the flank of each athymic (nu/nu genotype) mouse. Tumor volumes were assessed by bilateral Vernier caliper measurement and, taking length to be the longest diameter across the tumor and width the corresponding perpendicular, calculated using the formula (length×width)×the square root of (length×width)×(π/6). […] A one-tailed two-sample t-test was used to evaluate the significance of tumour growth inhibition.

[2] = tested on: human A431 vulval carcinoma tumour xenografts; assay: Human A431 vulval carcinoma tumour xenografts in nude mice; settings: A431 xenograft; for Number of tumours regressing after 31 days of treatment (treatment from day 28 to day 59): tumour volume at day 59 smaller than pre-treatment value on day 28, regressing/total
Experimental: 5×10^6 A431 tumour cells in 0.1 ml of serum free Dulbecco's Modified Eagle's Medium (DMEM) were injected subcutaneously (s.c.) into the flank of each athymic (nu/nu genotype) mouse. Eleven days after inoculation tumours were excised and dissected to generate cubic tumour fragments of 0.5-1 mm^3, which were implanted into further nude mice for a therapy experiment. Tumour volumes were assessed by bilateral Vernier caliper measurement and, taking length to be the longest diameter across the tumour and width the corresponding perpendicular, calculated using the formula (length×width)×the square root of (length×width)×(π/6). […] In addition, the number of tumour regressions following 31 days of treatment was ascertained (tumour regression being evident if the tumour volume at day 59 was smaller than the pre-treatment value on day 28).

Row | Compound | % Inhibition of Tumour Growth at Day 14 [1] | Mean % Inhibition of tumour growth following 21 days of treatment (treatment from day 28 to day 49) ([2]; nude mice, p.o., ZD6474 50 mg/kg/day, ZD1839 50 mg/kg/day, or combination, assessed day 49 versus control) | % tumour regression following 21 days of treatment (day 28 to day 49) ([2]; restatement of inhibition above 100% as regression, day 49) | Number of tumours regressing after 31 days of treatment (treatment from day 28 to day 59) [2]
1 | COc1cc2c(Nc3ccc(Br)cc3F)ncnc2cc1OCC1CCN(C)CC1 [ZD6474, 4-(4-bromo-2-fluoroanilino)-6-methoxy-7-(1-methylpiperidin-4-ylmethoxy)quinazoline] | 38% | 116% (P < 0.001) | (i.e. 16% tumour regression) | 6/9
2 | COc1cc2ncnc(Nc3ccc(F)c(Cl)c3)c2cc1OCCCN1CCOCC1 [ZD1839, N-(3-chloro-4-fluorophenyl)-7-methoxy-6-(3-morpholinopropoxy)quinazolin-4-amine, reference compound] |  |  |  | 3/9
